Data taken from paper PMC3907409, “A Cytoplasmic New Catalytic Subunit of Calcineurin in Trypanosoma cruzi and Its Molecular and Functional Characterization” (PLoS Neglected Tropical Diseases, 2014).

Biological target: T1, TcCaNA2 (Trypanosoma cruzi, UniProt G9B7N4)
T1 construct: gene CaNA2; tag cleavage not mentioned; primers from CL Brener XM_816360.1
Assay: colorimetric phosphatase assay, absorbance at […] nm
Format: biochemical
Details: 80 mM p-NPP, 1 µg enzyme, 15 min at 30 °C; 1 mM MnCl2 or NiCl2 (also CaCl2, MgCl2)

T1 sequence (G9B7N4 entry or part of it): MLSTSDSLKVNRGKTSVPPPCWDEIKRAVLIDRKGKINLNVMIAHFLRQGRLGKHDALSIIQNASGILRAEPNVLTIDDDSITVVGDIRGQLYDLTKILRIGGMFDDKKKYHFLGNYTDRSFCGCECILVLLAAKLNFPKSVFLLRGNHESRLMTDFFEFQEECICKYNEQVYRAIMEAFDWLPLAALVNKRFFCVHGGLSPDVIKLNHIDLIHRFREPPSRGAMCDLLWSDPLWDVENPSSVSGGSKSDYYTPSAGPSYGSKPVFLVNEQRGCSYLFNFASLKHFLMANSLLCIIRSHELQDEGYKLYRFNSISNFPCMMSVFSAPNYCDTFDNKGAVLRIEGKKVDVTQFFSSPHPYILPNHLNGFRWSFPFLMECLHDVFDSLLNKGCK

O=[N+]([O-])c1ccc(OP(=O)(O)O)cc1 [p-nitrophenyl phosphate]
colorimetric phosphatase assay, absorbance at 405 nm: The recombinant protein TcCaNA2 showed enzymatic activity using p-NPP as substrate
